# Experimental data from patent US20180028553A1, “USE OF STING AGONIST AS CANCER TREATMENT” (The University of Chicago, priority 2013, published 2018).
# Entries after “also recorded” stand apart in the source; their conditions may differ.
# Key:
# 4T-1 tumors = test: Intratumoral treatment of 4T-1 tumors; type: in vivo, mouse; settings: BALB/c mice, single IT dose of 500 μg DMXAA
# Procedure: (§1) In vivo tumor experiments. 10^6 of B16-SIY tumor cells, 5×10^4 B16.F10 tumor cells, 10^5 4T1 and CT26, or 10^6 other tumor cells were injected s.c. in 100 μl DPBS or HBSS on the right flank of mice. Following tumor implantation, mice were randomized into treatment groups. […] Measurements of tumors were performed twice per week using calipers, and the tumor volume was calculated with the formula: V=(length×width^2)/2. In some experiments, tumor-free survivors were rechallenged with tumor cells on the opposite flank several weeks after the injection of the primary tumor. Naïve mice were used as controls. For the contralateral experiments, mice were implanted on both flanks and only one tumor was treated. For the B16 melanoma lung metastasis experiments, mice were implanted on the flank with 5×10^4 cells B16.F10 on day 0, and then injected intravenously with 1×10^5 cells on day 7. Lungs were harvested on day 28. Administration of compounds, measurements of tumors and counting of lung tumors were performed in a blinded fashion.
# [1] = system: BM-DCs (CD40, CD86, MHC class II); test: Expression of activation markers on BM-DCs by flow cytometry; type: cell-based, mouse; settings: WT versus STING-deficient BM-DCs; DMXAA 25 μg/ml or LPS 100 ng/ml
# Procedure: Expression of activation markers by flow cytometry. […] Stained cells were analyzed using LSR II cytometer with FACSDiva software (BD) or FACSVerse with FACSuite software. Data analysis was conducted with FlowJo software (Tree Star).
# tumors [2] = settings: background statement; cited from earlier work
# B16.F10 tumors = test: Intratumoral treatment of established B16.F10 tumors; type: in vivo, mouse; settings: C57BL/6 mice, single IT dose of 500 μg DMXAA
# Procedure: as §1
# B16.SIY tumors = type: in vivo
# Procedure: As a comparison, the cyclic dinucleotide compounds from Aduro will be injected into tumors in parallel sets of mice. Tumor volumes are estimated twice a week using the formula described above.
# as §1
# IFN-β = test: Murine IFN-β ELISA, macrophages and BM-DCs; type: cell-based, mouse
# Procedure: Murine IFN-β ELISA. […] Conditioned media were collected after 4 hours. IFN-β concentration was assessed using VeriKine™ Mouse Interferon Beta ELISA Kit (PBL interferon source).
# tumors [3] = settings: background statement; cited from earlier work; remark: listed apart in the source
# TRAMP-C2 tumors = test: Intratumoral treatment of TRAMP-C2 tumors; type: in vivo, mouse; settings: C57BL/6 mice, single IT dose of 500 μg DMXAA
# Procedure: as §1
# SIY antigen = test: IFN-γ ELISPOT and SIY-pentamer staining in B16.SIY tumor-bearing mice; type: in vivo, mouse
# Procedure: The mouse IFN-γ enzyme-linked Immunospot assay (ELISPOT) from BD is used according to the manufacturer's protocol. In brief, splenocytes are plated at 10^6 cells/well and stimulated overnight with SIY peptide (160 nM), PMA (50 ng/ml) and ionomycin (0.5 μM) as positive control, or medium (DMEM supplemented with 10% heat-inactivated FCS, penicillin, streptomycin, L-arginine, L-glutamine, folic acid, and L-asparagine) as negative control. IFN-γ spots are detected using biotinylated antibody and avidin-peroxidase and developed using AEC substrate (BD Bioscience). Plates are read in an Immunospot Series 3 Analyzer and analyzed with ImmunoSpot software (Cellular Technology Ltd).
# 5×10^6 cells/sample are labeled with PE-MHC class I tetramers (Beckman Coulter or Proimmune) consisting of murine H-2Kb complexed to either […] (SIY) peptide or […] (OVA) peptide as a negative control, anti-TCRβ-AF700 (clone H57-597), antiCD8-PO (clone 5H10), anti-CD4-PB (clone RM4-5), anti CD62L-PE_Cy7 (clone MEL-14), anti-CD44-APC (clone IM7) and the Fixable Viability dye eFluor780 (eBioScience). FACS analysis is performed using FACSCanto or LSR II cytometers with FACSDiva software (BD). Data analysis is conducted with FlowJo software (Tree Star).
# IFN-γ ELISPOT and SIY-pentamer staining. […] For the ELISPOTs, 10^6 splenocytes were plated per well and stimulated overnight with SIY peptide (160 nM) or AH1 (1 μM) peptide, with PMA (50 ng/ml) plus ionomycin (0.5 μM) as a positive control, or medium as negative control. Spots were developed using the BD mouse IFN-γ kit according to the manufacturer's instructions and the number of spots was measured using an Immunospot Series 3 Analyzer and analyzed using ImmunoSpot software (Cellular Technology Ltd). For SIY-pentamer staining, splenocytes were preincubated for 15 min with anti-CD16/32 monoclonal antibody (93) to block potential nonspecific binding, and labeled with PE-MHC class I pentamer (Proimmune) consisting of murine H-2K^b complexed to […] (SIY) peptide, anti-TCRβ-AF700 (H57-597), anti-CD8-Pacific Blue (53-6.7), anti-CD4-Pacific Orange (RM4-5) (all antibodies from BioLegend) and the Fixable Viability Dye eFluor 450 (eBioscience). Stained cells were analyzed using LSR II cytometer with FACSDiva software (BD). Data analysis was conducted with FlowJo software (Tree Star).
# [4] = system: five hSTING alleles (WT, REF, HAQ, AQ and Q); test: IFN-β luciferase reporter assay in HEK 293T cells expressing hSTING variants; type: cell-based, human; settings: 100 μg/ml DMXAA, 6 hours
# Procedure: Luciferase Assay. […] After 20 min, stimulation mixtures were removed and normal media was added. After a total of 6 hours, cell lysates were prepared and reporter gene activity measured using the Dual Luciferase Assay System (Promega) on a Spectramax M3 luminometer.
# Ag104L tumors = test: Intratumoral treatment of Ag104L tumors; type: in vivo, mouse; settings: C3H mice, single IT dose of 500 μg DMXAA
# Procedure: as §1
structure (smiles),measurement,setting,value
"Cc1ccc2c(=O)c3cccc(CC(=O)O)c3oc2c1C [DMXAA, 5,6-dimethylXAA (xanthenone-4-acetic acid)]",tumor growth,4T-1 tumors,significantly reduced the growth
same,"induction of co-stimulatory molecules (CD40, CD86, MHC class II)",[1],upregulated activation markers such as CD40 and C86 in a STING dependent manner; also recorded: observed only in WT cells
same,outcome of clinical trials for the treatment of tumors,tumors [2],all failed
same,tumor growth,B16.F10 tumors,significantly reduced the growth
same,mice that reject the tumors,"B16.SIY tumors; WT B6 mice, tumors 100-200 mm3, single intratumoral dose",80-90%
same,tumor regression and rejection,"B16.SIY tumors; WT mice, single IT dose of 500 μg at day 7",potent tumor regression in all animals and complete tumor rejection in the majority of mice
same,regression of injected and non-injected secondary tumor,"B16.SIY tumors; tumors in both flanks, only one treated IT",Tumor regression was observed in both sites
same,IFN-β production,"IFN-β; BM-DC from WT versus STING^−/− mice, DMXAA",a high production of IFN-β
same,IFN-β production,"IFN-β; STING^−/− macrophages, DMXAA 50 μg/ml",only in WT macrophages; also recorded: not from STING^−/− macrophages
same,IFN-β production,"IFN-β; WT macrophages, DMXAA 50 μg/ml",high production of IFN-β; also recorded: IFN-β secretion was detected
same,antitumor effect,tumors [3],induced haemorrhagic necrosis and tumour regression
same,tumor growth,TRAMP-C2 tumors,significantly reduced the growth
same,frequencies of SIY-specific T cells,SIY antigen; STING^−/− mice,markedly reduced
same,SIY-specific CD8+ T cells by SIY pentamer staining,"SIY antigen; WT mice, spleens (b243 also tumors), after IT DMXAA",higher amount of CD8+ SIY specific T cells; also recorded: high frequency of SIY-specific CD8^+ T cells
same,endogenous T cell response against SIY (ELISPOT and CD8 SIY positive cells in spleen and tumors),SIY antigen; one week after injection,highly increased
same,increase in number of specific T cells producing IFN-g upon stimulation with SIY (ELISPOT),"SIY antigen; one week after injection, versus saline",10 fold
same,frequency of SIY-specific IFN-γ-producing T cells (ELISPOT),"SIY antigen; splenocytes 5 days after treatment, 500 μg IT, WT mice",marked increase
same,IFN-β reporter activation,[4],failed to activate
same,tumor growth,Ag104L tumors,significantly reduced the growth
